Results published in ChEMBL document CHEMBL5303573, “Mapping human microbiome drug metabolism by gut bacteria and their genes” (Nature, 2019).
Values belong to the compound of their own block, whether it stands above or below them.

Experiments:
[1] = The drug is tested on Proteus penneri strain: ATCC35198 for biotransformation. The drug concentrations were measured before and after a 12-h incubation by liquid-chromatography-coupled mass spectrometry (LC–MS); conditions: 2 µM
[2] = molecular target: T1, Nitroreductase domain-containing protein (Phocaeicola dorei, UniProt B6VU18); assay: The drug is tested on Bacteroides dorei strain: DSM17855 for biotransformation. The drug concentrations were measured before and after a 12-h incubation by liquid-chromatography-coupled mass spectrometry (LC–MS); type: ADME; parameters: dose 2 uM; conditions: 2 µM
T1 sequence (B6VU18 whole entry): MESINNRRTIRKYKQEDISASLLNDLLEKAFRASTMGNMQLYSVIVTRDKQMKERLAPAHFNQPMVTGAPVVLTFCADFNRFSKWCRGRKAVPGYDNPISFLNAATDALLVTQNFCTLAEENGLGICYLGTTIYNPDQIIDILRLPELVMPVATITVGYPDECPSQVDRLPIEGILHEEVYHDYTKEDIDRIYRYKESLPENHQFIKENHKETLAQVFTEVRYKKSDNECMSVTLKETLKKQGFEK

[3] = (§1) The drug is tested on the gut metagenome community of MV16 with ENA study accession number: PRJEB31790 and ENA sample accession number: SAMEA5537497 for biotransformation. The drug concentrations were measured over 9 timepoints collected between 0 and 24 hours of incubation by liquid-chromatography-coupled mass spectrometry (LC–MS); type: ADME; parameters: dose 2 uM, timepoint 0, 1, 2, 4, 6, 8, 12, 18, 24 hours; conditions: 2 µM
[4] = as §1, with “MV14” for “MV16”, “SAMEA5537495” for “SAMEA5537497”; type: ADME; parameters: dose 2 uM, timepoint 0, 1, 2, 4, 6, 8, 12, 18, 24 hours; conditions: 2 µM
[5] = as §1, with “MV06” for “MV16”, “SAMEA5537487” for “SAMEA5537497”; type: ADME; parameters: dose 2 uM, timepoint 0, 1, 2, 4, 6, 8, 12, 18, 24 hours; conditions: 2 µM
[6] = as §1, with “MV24” for “MV16”, “SAMEA5537505” for “SAMEA5537497”; type: ADME; parameters: dose 2 uM, timepoint 0, 1, 2, 4, 6, 8, 12, 18, 24 hours; conditions: 2 µM
[7] = as §1, with “MV05” for “MV16”, “SAMEA5537486” for “SAMEA5537497”; type: ADME; parameters: dose 2 uM, timepoint 0, 1, 2, 4, 6, 8, 12, 18, 24 hours; conditions: 2 µM
[8] = as §1, with “MV18” for “MV16”, “SAMEA5537499” for “SAMEA5537497”; type: ADME; parameters: dose 2 uM, timepoint 0, 1, 2, 4, 6, 8, 12, 18, 24 hours; conditions: 2 µM
[9] = as §1, with “MV26” for “MV16”, “SAMEA5537507” for “SAMEA5537497”; type: ADME; parameters: dose 2 uM, timepoint 0, 1, 2, 4, 6, 8, 12, 18, 24 hours; conditions: 2 µM
[10] = as §1, with “MV09” for “MV16”, “SAMEA5537490” for “SAMEA5537497”; type: ADME; parameters: dose 2 uM, timepoint 0, 1, 2, 4, 6, 8, 12, 18, 24 hours; conditions: 2 µM
[11] = as §1, with “MV21” for “MV16”, “SAMEA5537502” for “SAMEA5537497”; type: ADME; parameters: dose 2 uM, timepoint 0, 1, 2, 4, 6, 8, 12, 18, 24 hours; conditions: 2 µM
[12] = as §1, with “MV17” for “MV16”, “SAMEA5537498” for “SAMEA5537497”; type: ADME; parameters: dose 2 uM, timepoint 0, 1, 2, 4, 6, 8, 12, 18, 24 hours; conditions: 2 µM
[13] = molecular target: T2, Sialic acid-specific 9-O-acetylesterase (Bacteroides thetaiotaomicron, UniProt Q8A0D0); assay: (§2) The drug is tested on Bacteroides thetaiotaomicron strain: VPI-5482 for biotransformation. The drug concentrations were measured before and after a 12-h incubation by liquid-chromatography-coupled mass spectrometry (LC–MS); type: ADME; parameters: dose 2 uM; conditions: 2 µM
T2 sequence (Q8A0D0 whole entry): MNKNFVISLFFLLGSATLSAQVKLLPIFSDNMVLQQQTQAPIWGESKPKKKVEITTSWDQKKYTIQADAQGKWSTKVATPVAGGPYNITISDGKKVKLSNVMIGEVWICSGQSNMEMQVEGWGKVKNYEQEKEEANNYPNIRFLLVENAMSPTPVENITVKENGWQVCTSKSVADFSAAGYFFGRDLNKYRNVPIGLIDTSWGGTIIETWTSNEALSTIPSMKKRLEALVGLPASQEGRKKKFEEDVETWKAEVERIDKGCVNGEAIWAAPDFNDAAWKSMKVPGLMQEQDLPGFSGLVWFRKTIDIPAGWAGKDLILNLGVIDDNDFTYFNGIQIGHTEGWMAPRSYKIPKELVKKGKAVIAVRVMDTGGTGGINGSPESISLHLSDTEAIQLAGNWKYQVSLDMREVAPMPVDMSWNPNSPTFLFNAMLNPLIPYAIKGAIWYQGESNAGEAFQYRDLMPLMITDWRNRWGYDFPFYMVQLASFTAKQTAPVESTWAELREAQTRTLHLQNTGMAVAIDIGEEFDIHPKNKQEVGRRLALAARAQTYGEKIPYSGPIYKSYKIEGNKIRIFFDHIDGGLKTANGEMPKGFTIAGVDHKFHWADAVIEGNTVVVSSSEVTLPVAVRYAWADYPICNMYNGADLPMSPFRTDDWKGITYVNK

[14] = molecular target: T3, Sialic acid-specific acetylesterase (Bacteroides thetaiotaomicron, UniProt Q8A331); assay: as §2; type: ADME; parameters: dose 2 uM; conditions: 2 µM
T3 sequence (Q8A331 whole entry): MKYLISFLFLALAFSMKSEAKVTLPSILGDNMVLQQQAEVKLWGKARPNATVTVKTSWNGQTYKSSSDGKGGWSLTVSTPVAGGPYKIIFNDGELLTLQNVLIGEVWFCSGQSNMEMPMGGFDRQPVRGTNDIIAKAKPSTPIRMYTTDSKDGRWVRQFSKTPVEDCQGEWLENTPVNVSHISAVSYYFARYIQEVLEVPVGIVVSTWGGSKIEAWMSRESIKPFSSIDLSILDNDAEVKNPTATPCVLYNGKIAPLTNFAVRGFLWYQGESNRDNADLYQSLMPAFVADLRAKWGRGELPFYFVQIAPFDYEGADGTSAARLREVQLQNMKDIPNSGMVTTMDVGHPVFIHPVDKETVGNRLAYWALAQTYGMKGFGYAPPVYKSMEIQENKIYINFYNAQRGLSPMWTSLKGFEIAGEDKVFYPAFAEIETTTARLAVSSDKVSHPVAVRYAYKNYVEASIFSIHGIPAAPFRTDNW

[15] = as §1, with “MV28” for “MV16”, “SAMEA5537509” for “SAMEA5537497”; type: ADME; parameters: dose 2 uM, timepoint 0, 1, 2, 4, 6, 8, 12, 18, 24 hours; conditions: 2 µM
[16] = as §1, with “MV04” for “MV16”, “SAMEA5537485” for “SAMEA5537497”; type: ADME; parameters: dose 2 uM, timepoint 0, 1, 2, 4, 6, 8, 12, 18, 24 hours; conditions: 2 µM
[17] = as §1, with “MV11” for “MV16”, “SAMEA5537492” for “SAMEA5537497”; type: ADME; parameters: dose 2 uM, timepoint 0, 1, 2, 4, 6, 8, 12, 18, 24 hours; conditions: 2 µM
[18] = The drug is tested on Clostridium hathewayi strain: DSM13479 for biotransformation. The drug concentrations were measured before and after a 12-h incubation by liquid-chromatography-coupled mass spectrometry (LC–MS); conditions: hungatella hathewayi, 2 µM

Compound: CN1[C@@H]2CC[C@H]1C[C@@H](OC(=O)C(CO)c1ccccc1)C2 (stereo partly specified) [ATROPINE]
- Bacterial Biotransformation [1]: Compound NOT metabolized

- Bacterial Biotransformation [2]: Compound NOT metabolized
Compound: CC(=O)OCC(=O)[C@@]1(OC(C)=O)[C@@H](C)C[C@H]2[C@@H]3C[C@H](F)C4=CC(=O)C=C[C@]4(C)[C@@]3(F)[C@@H](O)C[C@@]21C [DIFLORASONE DIACETATE]

- Bacterial Biotransformation [3]: Compound NOT metabolized
- Bacterial Biotransformation [4]: Compound NOT metabolized
- Bacterial Biotransformation [5]: Compound NOT metabolized
- Bacterial Biotransformation [6]: Compound NOT metabolized
- Bacterial Biotransformation [7]: Compound NOT metabolized
- Bacterial Biotransformation [8]: Compound NOT metabolized
- Bacterial Biotransformation [9]: Compound NOT metabolized
- Bacterial Biotransformation [10]: Compound NOT metabolized
- Bacterial Biotransformation [11]: Compound NOT metabolized
- Bacterial Biotransformation [2]: Compound NOT metabolized
- Bacterial Biotransformation [12]: Compound NOT metabolized
- Bacterial Biotransformation [13]: Compound NOT metabolized
- Bacterial Biotransformation [14]: Compound NOT metabolized
- Bacterial Biotransformation [15]: Compound NOT metabolized
- Bacterial Biotransformation [16]: Compound NOT metabolized
- Bacterial Biotransformation [17]: Compound NOT metabolized
Compound: COc1ccc([C@@H]2Sc3ccccc3N(CCN(C)C)C(=O)[C@@H]2OC(C)=O)cc1 [DILTIAZEM]

Compound: CNCC[C@H](Oc1cccc2ccccc12)c1cccs1 [DULOXETINE]
- Bacterial Biotransformation [18]: Compound NOT metabolized

- Bacterial Biotransformation [3]: Compound metabolized
- Bacterial Biotransformation [4]: Compound metabolized
- Bacterial Biotransformation [5]: Compound metabolized
- Bacterial Biotransformation [6]: Compound metabolized
- Bacterial Biotransformation [7]: Compound metabolized
- Bacterial Biotransformation [8]: Compound metabolized
- Bacterial Biotransformation [9]: Compound metabolized
- Bacterial Biotransformation [10]: Compound metabolized
- Bacterial Biotransformation [11]: Compound metabolized
- Bacterial Biotransformation [2]: Compound NOT metabolized
- Bacterial Biotransformation [12]: Compound metabolized
- Bacterial Biotransformation [13]: Compound metabolized
- Bacterial Biotransformation [14]: Compound metabolized
- Bacterial Biotransformation [15]: Compound metabolized
- Bacterial Biotransformation [16]: Compound metabolized
- Bacterial Biotransformation [17]: Compound metabolized
Compound: CC(=O)OCC(CCn1cnc2cnc(N)nc21)COC(C)=O [FAMCICLOVIR]

- Bacterial Biotransformation [1]: Compound NOT metabolized
- Bacterial Biotransformation [18]: Compound NOT metabolized
Compound: O=C(CCCN1CCC(O)(c2ccc(Cl)cc2)CC1)c1ccc(F)cc1 [HALOPERIDOL]

Compound: Cc1ccc(NC(=O)c2ccc(CN3CCN(C)CC3)cc2)cc1Nc1nccc(-c2cccnc2)n1 [IMATINIB]
- Bacterial Biotransformation [1]: Compound NOT metabolized

- Bacterial Biotransformation [18]: Compound NOT metabolized
Compound: CC1Cc2ccccc2N1NC(=O)c1ccc(Cl)c(S(N)(=O)=O)c1 (stereo unspecified) [INDAPAMIDE]

- Bacterial Biotransformation [2]: Compound NOT metabolized
- Bacterial Biotransformation [13]: Compound NOT metabolized
- Bacterial Biotransformation [14]: Compound NOT metabolized
Compound: C#C[C@]1(O)CC[C@H]2[C@@H]3CCC4=CC(=O)CC[C@@H]4[C@H]3CC[C@@]21CC [LEVONORGESTREL]

- Bacterial Biotransformation [1]: Compound NOT metabolized
- Bacterial Biotransformation [18]: Compound NOT metabolized
Compound: COC(=O)Nc1nc2ccc(C(=O)c3ccccc3)cc2[nH]1 [MEBENDAZOLE]

- Bacterial Biotransformation [18]: Compound NOT metabolized
Compound: COc1ccc2cc([C@H](C)C(=O)O)ccc2c1 [NAPROXEN]

- Bacterial Biotransformation [3]: Compound metabolized
- Bacterial Biotransformation [4]: Compound metabolized
- Bacterial Biotransformation [5]: Compound metabolized
- Bacterial Biotransformation [6]: Compound metabolized
- Bacterial Biotransformation [7]: Compound metabolized
- Bacterial Biotransformation [8]: Compound metabolized
- Bacterial Biotransformation [9]: Compound metabolized
- Bacterial Biotransformation [10]: Compound metabolized
- Bacterial Biotransformation [11]: Compound metabolized
- Bacterial Biotransformation [2]: Compound NOT metabolized
- Bacterial Biotransformation [12]: Compound metabolized
- Bacterial Biotransformation [13]: Compound NOT metabolized
- Bacterial Biotransformation [14]: Compound NOT metabolized
- Bacterial Biotransformation [15]: Compound metabolized
- Bacterial Biotransformation [16]: Compound metabolized
- Bacterial Biotransformation [17]: Compound metabolized
Compound: C#C[C@]1(OC(C)=O)CC[C@H]2[C@@H]3CCC4=CC(=O)CC[C@@H]4[C@H]3CC[C@@]21C [NORETHINDRONE ACETATE]

- Bacterial Biotransformation [1]: Compound NOT metabolized
- Bacterial Biotransformation [18]: Compound NOT metabolized
Compound: C#C[C@]1(OC(C)=O)CC[C@H]2[C@@H]3CCC4=C/C(=N/O)CC[C@@H]4[C@H]3CC[C@@]21CC [NORGESTIMATE]

- Bacterial Biotransformation [2]: Compound NOT metabolized
- Bacterial Biotransformation [13]: Compound NOT metabolized
- Bacterial Biotransformation [14]: Compound NOT metabolized
Compound: N#Cc1ccc2c(c1)N(CCCN1CCC(O)CC1)c1ccccc1S2 [PERICIAZINE]
